Reference: patent US12240854B2, “TRAF 6 inhibitors” (Helmholtz Zentrum München - Deutsches Forschungszentrum für …, priority 2018, dated 2025)
“Also recorded” adds a separate entry of the source.

Tests used:
[1] = system: Diet-Induced-Obesity (DIO) mice; test: Diet-Induced-Obesity (DIO) mouse study; assay type: in vivo; conditions: 7.4 mg/kg IP once daily
Procedure: Mice were fed a high-fat-diet until they reached a body weight of at least 40 g and developed […]. These mice were separated in control group and a group for C25-140 (compound 3) injection. Mice were treated every day with 14 μmol/kg (=7.4 mg/kg) C25-140 intraperitoneally for a period of 20 days. Thereby, C25-140 was dissolved in 2.9% DMSO, 1.5% Tween-80 and 1×PBS. Every day before injection, the body weight and food intake were measured. On day 20, mice were sacrificed two hours after compound injection and […] white adipose tissue from both body sites was removed, frozen in liquid nitrogen and stored at −80° C.

[2] = system: p-IκBα (Ser32/36) in MEF cells; test: ALPHASurefire p-IκBα / total IκBα in MEF cells; assay type: cell-based, mouse; conditions: IL-1β
Procedure: In order to detect protein levels of p-IκBα (Ser32/36) as well as total IκBa, 1×10^4 MEF cells were seeded in 96-well plates, treated with compound for 6 hours and stimulated with 1 ng/ml IL-1β for 7 minutes. The p-IκBα and total IκBα protein levels were analyzed using the ALPHASurefire kits (PerkinElmer) following the manufacturer's instruction. The general 2-plate protocol was conducted.

[3] = target: T1, TRAF6-Ubc13 binding in HEK293T cells (Homo sapiens, UniProt Q9Y4K3); test: Co-immunoprecipitation of HA-TRAF6 and Ubc13 in HEK 293T cells; assay type: cell-based
T1 construct: RING-Zincfinger1 (RZ1) domain (residues 50-159) of human TRAF6 wildtype; expressed in transfected cells; host or cells: HEK 293T
T1 sequence (Q9Y4K3 50-159): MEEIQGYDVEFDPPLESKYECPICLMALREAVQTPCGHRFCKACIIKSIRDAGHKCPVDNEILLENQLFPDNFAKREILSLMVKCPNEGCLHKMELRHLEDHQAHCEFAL
Procedure: To study the interaction of TRAF6 and Ubc13 in cells, 1×10^6 293T cells were seeded and after 18 hours cells were transfected with 1 μg pEF-HA empty or pEF-HA-TRAF6 RZ1 plasmid using the X-tremeGENE HP DNA transfection reagent (Roche). 6 hours upon transfection, cells were treated with compound or DMSO. After 42 hours further incubation, cells were harvested in Co-IP lysis buffer and HA-TRAF6 was immunoprecipitated with anti-HA affinity matrix (Roche). Binding of Ubc13 to TRAF6 was examined in Western Blot analysis.

[4] = target: T2, MURF/TRIM63 (Homo sapiens, UniProt Q969Q1); test: In vitro ubiquitination assay, TRIM63 ubiquitin ligase kit; assay type: biochemical; conditions: K48 chain formation
T2 construct: purchased Boston Biochem
T2 sequence (Q969Q1 whole entry): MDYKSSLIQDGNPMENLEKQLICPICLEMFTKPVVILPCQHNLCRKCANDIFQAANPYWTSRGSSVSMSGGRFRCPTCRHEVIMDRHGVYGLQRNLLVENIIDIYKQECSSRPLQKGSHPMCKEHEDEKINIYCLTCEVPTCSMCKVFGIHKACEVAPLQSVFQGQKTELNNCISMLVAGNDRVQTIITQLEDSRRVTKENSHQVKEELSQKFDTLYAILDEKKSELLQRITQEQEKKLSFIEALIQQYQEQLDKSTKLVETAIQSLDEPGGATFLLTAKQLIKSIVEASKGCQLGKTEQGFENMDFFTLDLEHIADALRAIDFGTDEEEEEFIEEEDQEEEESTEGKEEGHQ
Procedure: (§1) For analysis of cIAP1, MDM2, TRIM63, RNF4, ITCH and E6AP mediated poly-ubiquitination, the respective ubiquitin ligase kit from Boston Biochem (K-102, K-260, K-200B, K-220, K-240 and K-270) was used. Here, reaction buffer, E1, E2 and E3 enzyme (and p53 substrate in case of MDM2) were mixed and pre-incubated with compound or DMSO for 5 minutes at room temperature before adding Mg^2+-ATP and mono-ubiquitin for reaction start. Ubiquitination was visualized by Western Blot analyses.

[5] = system: 24 different Ubiquitin reaction cascades (E2, E3 and substrate combinations); test: Ubiquitin Profiler (Eurofins), single point; assay type: biochemical; conditions: 30 μM, 24 reactions
Procedure: C25-140 was sent to Eurofins Pharma Discovery Services UK to perform a Single Point Ubiquitin Profiler testing of C25-140 effect at a concentration of 30 μM on 24 different Ubiquitin reaction cascades employing distinct combinations of E2, E3 and substrate. Each reaction was measured in duplicates. Cascade activity is expressed as a percentage of the mean cascade activity in the positive control samples. The positive control value is considered to be 100%, and all test samples are referred to this value.

[6] = system: IKK kinase activity in Jurkat T-cells; test: IKK kinase assay in Jurkat T-cells; assay type: cell-based, human; conditions: PMA/Ionomycin
Procedure: For MEF cells, 5.5×10^5 cells were seeded, then treated with compound for 6 hours and eventually stimulated with IL-1β or TNFα for 8 minutes. 1×10^6 Jurkat T-cells were treated with compound for 6 hours and finally stimulated with PMA (400 ng/ml) and lonomycin (600 ng/ml) for 8 minutes. After cell lysis in Co-IP lysis buffer (150 mM NaCl; 25 mM Hepes (pH 7.5); 0.2% NP-40; 1 mM Glycerol; 10 mM NaF; 8 mM β-Glycerophosphat; 1 mM DTT; 300 μM Sodium-vanadate; complete protease inhibitor), input samples were taken and the supernatant was then incubated with 6 μL IKKγ antibody FL-419 (Santa Cruz Biotechnology). Upon incubation with Protein-G-Sepharose beads (GE Healthcare), beads were washed in Co-IP wash buffer (150 mM NaCl; 25 mM Hepes (pH 7.5); 0.2% NP-40; 1 mM Glycerol) and transferred into kinase reaction buffer ([…] HEPES pH7.9; 10 mM MgCl2; 20 μM ATP; 20 mM β-Glycerophosphat; 200 μM Sodium-Vanadate; 1 mM DTT) supplemented with […] GST-IκBα (1-53) and 0.5 μL ^32P-γ-ATP. After 30 minutes incubation at 37° C., reaction was stopped and analyzed by autoradiography as well as Western Blot after separation on SDS-PAGE.

[7] = system: osteosarcoma cell line U2OS; test: Cell growth of the osteosarcoma cell line U2OS with or without irradiation; assay type: cell-based
Procedure: For analysis of the cell growth of the osteosarcoma cell line U2OS, 5×10^3 cells were seeded in 96 well plates. 18 hours later, cells were treated with C25-140 (compound 3) or DMSO for 6 hours. Using a ^137caesium source (HWM-D2000), selected samples were irradiated with a dose of either 2 Gy or 4 Gy. Cell growth was measured every 24 hours for a period of 7 days by counting Hoechst33342 positive cells in an Operetta High-Content Imaging System (PerkinElmer) and the Harmony/Columbus analysis software (PerkinElmer).

[8] = target: T3, cIAP1 (Homo sapiens, UniProt Q13490); test: In vitro ubiquitination assay, cIAP1 ubiquitin ligase kit; assay type: biochemical; conditions: K63 chain formation
T3 construct: purchased Boston Biochem
T3 sequence (Q13490 whole entry): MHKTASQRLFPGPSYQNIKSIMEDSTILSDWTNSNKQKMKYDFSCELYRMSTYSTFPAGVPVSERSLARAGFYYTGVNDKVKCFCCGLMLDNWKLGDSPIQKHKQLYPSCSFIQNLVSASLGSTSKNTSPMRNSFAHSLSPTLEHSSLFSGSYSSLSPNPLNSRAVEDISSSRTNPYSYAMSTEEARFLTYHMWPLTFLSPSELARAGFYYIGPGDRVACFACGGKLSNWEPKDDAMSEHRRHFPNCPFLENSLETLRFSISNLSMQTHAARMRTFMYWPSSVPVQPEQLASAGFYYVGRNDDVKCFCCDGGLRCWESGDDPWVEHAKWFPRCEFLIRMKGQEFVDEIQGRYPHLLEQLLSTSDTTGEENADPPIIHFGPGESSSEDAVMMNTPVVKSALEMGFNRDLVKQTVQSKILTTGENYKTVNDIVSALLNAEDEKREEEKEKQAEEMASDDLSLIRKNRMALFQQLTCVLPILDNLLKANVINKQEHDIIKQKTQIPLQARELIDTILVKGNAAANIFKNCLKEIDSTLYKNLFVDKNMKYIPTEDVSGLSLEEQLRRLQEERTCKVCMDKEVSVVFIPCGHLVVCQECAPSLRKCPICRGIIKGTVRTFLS
Procedure: as §1

[9] = ADME: microsomal stability; assay type: in vitro ADME
Procedure: All ADME (plasma stability, plasma protein binding, microsomal stability, Log D, Caco-2 assay, CYP450 inhibition and hERG predictor assay) as well as pharmacokinetic studies (Tmax, Cmax, AUC0-240min, Mean Residence Time, Elimination half life, Elimination rate constant, Volume of Distribution and Clearance) of C25-140 (compound 3) were conducted by Bienta Enamine Biology Services of Bienta/Enamine Ltd.

SMILES: Cc1nn(-c2ccc3nnc(C)n3n2)c(C)c1CCC(=O)N1CCC(Cc2ccccc2)CC1 [Example C25-140, 1-(4-Benzylpiperidin-1-yl)-3-(3,5-dimethyl-1-(3-methyl-[1,2,4]-triazolo-[4,3-b]-pyridazin-6-yl)-1H-pyrazol-4-yl)-propan-1-one]
- food intake ([1]; 20 days): did not differ; also recorded: remains unaffected
- body weight gain ([1]; 20 days, high-fat-diet): reduces gain of weight; also recorded: hardly increased body weight; also recorded: milder body weight gain
- mRNA levels of IL-1β and VCAM in epidermal white adipose tissue ([1]; day 20): reduces IL-1β expression; also recorded: significantly reduced; also recorded: decreased
- activity in cell-based ALPHASurefire (NF-κB activation, p-IκBα) [2]: improved inhibitory activity; also recorded: more active
- interaction of endogenous Ubc13 with HA-tagged TRAF6 (co-immunoprecipitation) [3]: reduced interaction; also recorded: most active analogs; also recorded: dose-dependently decreases; also recorded: demonstrated inhibition of TRAF6-Ubc13 binding
- S5A ubiquitination by MURF/TRIM63 [4]: not influenced; also recorded: not affected
- Ubiquitin Profiler cascade activity [5]: None of these reactions was inhibited; also recorded: None of the reactions is considerably inhibited
- IKK kinase activity [6]: reduced; also recorded: diminished
- osteosarcoma cell growth ([7]; 30 μM compound + 2Gy irradiation): synergistic effects; also recorded: boosted the effect to the region of 4Gy irradiation; also recorded: decreases cell growth to the same extent as the higher dose of irradiation (4Gy)
- osteosarcoma cell growth ([7]; compound alone at 30 μM): reducing proliferation of U2OS cells to the same degree as 2Gy irradiation; also recorded: same inhibitory impact; also recorded: reduced
- auto-ubiquitination of cIAP1 [8]: indeed affected; also recorded: dose-dependently diminished
- microsomal stability [9]: stable
